Data published in ChEMBL document CHEMBL1221226 (Nat Chem Biol, 2009).

Tests used:
[1] = molecular target: Glucagon-like peptide 1 receptor (Homo sapiens, UniProt P43220); test: Agonist activity at GLP1R expressed in HEK293 cells assessed as stimulation of cAMP production by luciferase reporter gene assay; type: functional, cell-based
[2] = molecular target: Glucagon receptor (Homo sapiens, UniProt P47871); test: Agonist activity at GCGR expressed in HEK293 cells assessed as stimulation of cAMP production by luciferase reporter gene assay; type: functional, cell-based
Chain of Glucagon receptor (P47871 whole entry): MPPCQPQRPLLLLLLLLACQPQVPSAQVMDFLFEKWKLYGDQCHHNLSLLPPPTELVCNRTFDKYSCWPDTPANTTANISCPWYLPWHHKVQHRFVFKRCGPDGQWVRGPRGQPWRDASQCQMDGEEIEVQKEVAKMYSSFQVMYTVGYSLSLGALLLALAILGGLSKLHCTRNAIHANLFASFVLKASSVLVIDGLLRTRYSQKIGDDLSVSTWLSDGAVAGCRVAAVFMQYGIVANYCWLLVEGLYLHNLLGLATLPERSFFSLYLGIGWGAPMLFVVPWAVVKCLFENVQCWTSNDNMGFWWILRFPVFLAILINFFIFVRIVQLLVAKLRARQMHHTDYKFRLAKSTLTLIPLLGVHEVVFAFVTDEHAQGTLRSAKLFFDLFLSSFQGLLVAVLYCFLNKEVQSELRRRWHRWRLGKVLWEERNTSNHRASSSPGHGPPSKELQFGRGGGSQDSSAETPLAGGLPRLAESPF

Chain of Glucagon-like peptide 1 receptor (P43220 whole entry): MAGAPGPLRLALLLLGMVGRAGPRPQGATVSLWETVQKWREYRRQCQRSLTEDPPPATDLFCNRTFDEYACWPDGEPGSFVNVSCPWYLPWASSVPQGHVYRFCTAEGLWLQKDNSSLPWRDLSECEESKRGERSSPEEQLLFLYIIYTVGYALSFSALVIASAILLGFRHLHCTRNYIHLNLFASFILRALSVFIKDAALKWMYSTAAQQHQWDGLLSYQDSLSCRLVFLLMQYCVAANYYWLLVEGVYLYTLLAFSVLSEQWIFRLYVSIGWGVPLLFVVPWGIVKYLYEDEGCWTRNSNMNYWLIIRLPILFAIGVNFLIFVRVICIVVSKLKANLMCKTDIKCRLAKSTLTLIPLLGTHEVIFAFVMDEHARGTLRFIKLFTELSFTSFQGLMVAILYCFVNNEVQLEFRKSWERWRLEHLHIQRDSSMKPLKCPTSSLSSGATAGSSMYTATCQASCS

Row | EC50 [1] | EC50 [2] | SMILES
1 | 0.051 nM | 0.046 nM | CSCC[C@H](NC(=O)[C@H](CC(C)C)NC(=O)[C@H](Cc1c[nH]c2ccccc12)NC(=O)[C@H](CCC(N)=O)NC(=O)[C@@H](NC(=O)[C@H](Cc1ccccc1)NC(=O)[C@H](CC(=O)O)NC(=O)[C@H](CCC(N)=O)NC(=O)[C@H](C)NC(=O)[C@H](CCCN=C(N)N)NC(=O)[C@H](CCCN=C(N)N)NC(=O)[C@@H]1CCC(=O)NCCCC[C@H](NC(=O)[C@H](CO)NC(=O)[C@H](Cc2ccc(O)cc2)NC(=O)[C@H](CC(=O)O)NC(=O)[C@H](CO)NC(=O)[C@@H](NC(=O)[C@H](Cc2ccccc2)NC(=O)[C@@H](NC(=O)CNC(=O)[C@H](CCC(N)=O)NC(=O)[C@H](CO)N[C@@H](Cc2cnc[nH]2)C(=O)O)[C@@H](C)O)[C@@H](C)O)C(=O)N[C@@H](Cc2ccc(O)cc2)C(=O)N[C@@H](CC(C)C)C(=O)N[C@@H](CC(=O)O)C(=O)N1)C(C)C)C(=O)N[C@@H](CC(N)=O)C(=O)N[C@H](C(=O)O)[C@@H](C)O
2 | 0.049 nM | 0.058 nM | CSCC[C@H](NC(=O)[C@H](CC(C)C)NC(=O)[C@H](Cc1c[nH]c2ccccc12)NC(=O)[C@H](CCC(N)=O)NC(=O)[C@@H](NC(=O)[C@H](Cc1ccccc1)NC(=O)[C@H](CC(=O)O)NC(=O)[C@@H]1CCCCNC(=O)CC[C@H](NC(=O)[C@H](CC(=O)O)NC(=O)[C@H](CC(C)C)NC(=O)[C@H](Cc2ccc(O)cc2)NC(=O)[C@H](CCCCN)NC(=O)[C@H](CO)NC(=O)[C@H](Cc2ccc(O)cc2)NC(=O)[C@H](CC(=O)O)NC(=O)[C@H](CO)NC(=O)[C@@H](NC(=O)[C@H](Cc2ccccc2)NC(=O)[C@@H](NC(=O)CNC(=O)[C@H](CCC(N)=O)NC(=O)[C@H](CO)N[C@@H](Cc2cnc[nH]2)C(=O)O)[C@@H](C)O)[C@@H](C)O)C(=O)N[C@@H](CCCNC(=N)N)C(=O)N[C@@H](CCCNC(=N)N)C(=O)N[C@@H](C)C(=O)N1)C(C)C)C(=O)N[C@@H](CC(N)=O)C(=O)N[C@H](C(=O)O)[C@@H](C)O
3 | 0.24 nM | 0.078 nM | CSCC[C@H](NC(=O)[C@H](CC(C)C)NC(=O)[C@H](Cc1c[nH]c2ccccc12)NC(=O)[C@@H]1CCC(=O)NCCCC[C@H](NC(=O)[C@H](C)NC(=O)[C@H](CCCN=C(N)N)NC(=O)[C@H](CCCN=C(N)N)NC(=O)[C@H](CO)NC(=O)[C@H](CC(=O)O)NC(=O)[C@H](CC(C)C)NC(=O)[C@H](Cc2ccc(O)cc2)NC(=O)[C@H](CCCCN)NC(=O)[C@H](CO)NC(=O)[C@H](Cc2ccc(O)cc2)NC(=O)[C@H](CC(=O)O)NC(=O)[C@H](CO)NC(=O)[C@@H](NC(=O)[C@H](Cc2ccccc2)NC(=O)[C@@H](NC(=O)CNC(=O)[C@H](CCC(N)=O)NC(=O)[C@H](CO)N[C@@H](Cc2cnc[nH]2)C(=O)O)[C@@H](C)O)[C@@H](C)O)C(=O)N[C@@H](CC(=O)O)C(=O)N[C@@H](Cc2ccccc2)C(=O)N[C@@H](C(C)C)C(=O)N1)C(=O)N[C@@H](CC(N)=O)C(=O)N[C@H](C(=O)O)[C@@H](C)O
4 | 0.18 nM | 0.076 nM | CSCC[C@@H]1NC(=O)[C@H](CC(C)C)NC(=O)[C@H](Cc2c[nH]c3ccccc23)NC(=O)[C@@H](NC(=O)[C@@H](NC(=O)[C@H](Cc2ccccc2)NC(=O)[C@H](CC(=O)O)NC(=O)[C@H](CCC(N)=O)NC(=O)[C@H](C)NC(=O)[C@H](CCCN=C(N)N)NC(=O)[C@H](CCCN=C(N)N)NC(=O)[C@H](CO)NC(=O)[C@H](CC(=O)O)NC(=O)[C@H](CC(C)C)NC(=O)[C@H](Cc2ccc(O)cc2)NC(=O)[C@H](CCCCN)NC(=O)[C@H](CO)NC(=O)[C@H](Cc2ccc(O)cc2)NC(=O)[C@H](CC(=O)O)NC(=O)[C@H](CO)NC(=O)[C@@H](NC(=O)[C@H](Cc2ccccc2)NC(=O)[C@@H](NC(=O)CNC(=O)[C@H](CCC(N)=O)NC(=O)[C@H](CO)N[C@@H](Cc2cnc[nH]2)C(=O)O)[C@@H](C)O)[C@@H](C)O)C(C)C)CCC(=O)NCCCC[C@@H](C(=O)N[C@H](C(=O)O)[C@@H](C)O)NC1=O
